Data on five compounds can be found in patent US20080026409A1, “SALT-SENSITIVE HYPERTENSION” (THE BOARD OF TRUSTEES OF THE UNIVERSITY OF ILLINOIS, priority 2006, published 2008).

Entries after “also recorded” stand apart in the source; their conditions may differ.

In assay [1] the test system is Na/K ATPase in LLCPK1 cells. The assay is described as follows: Na/K ATPase distribution by confocal immunofluorescence. The following applies: for APN induced endocytosis of Na/K ATPase: LLCPK1 cells with APN overexpression plus siRNA; for Na/K ATPase distribution (endocytosis, membrane abundance): LLCPK1 cells, Ang IV 10 nM×12 hours, oubain 50 nM×12 hours (control). Format: cell-based. An excerpt: FIGS. 6A-6G are scans of photographs showing Na/K ATPase distribution in LLCPK1 cells by immuno fluorescence (complementary to FIG. 5): Confocal images from z-stacked permeabilized LLCPK1 cells probed for Na/K ATPase using monoclonal Ab against the alpha subunit of Na/K ATPase (1:100). FIG. 6A: Control. […] All images were generated with a Zeiss LSM 410 laser scanning confocal microscope at 100×. All settings were the same for all images obtained. Images are representative of experiments repeated twice. Arrows: endocytosis of Na/K ATPase.
Confocal microscopy: Confocal fluorescence microscopy is performed using a Zeiss LSM 510 confocal microscope and Anti alphal Na/K ATPase mAb (Upstate/ Millipore, Billerica, Mass.) to further confirm the internalization of surface Na/K ATPase.

In assay [2] the test system is basolateral Na/K ATPase in LLCPK1 cells. The assay is described as follows: Basolateral Na/K ATPase expression by surface biotinylation and Western blot. The following applies: for expression of basolateral Na/K ATPase: LLCPK1 cells, Ang IV 10^−9 M×20 hours, siRNA transfection. The assay is classed as cell-based. As to the method: Representative autoradiograph of Na-K ATPase as detected by Western blot represented above bar-graph. Upper panel: representative autoradiograph of Na-K ATPase as detected by Western blot. Overexpression of APN( APN Over Exp) n=3 (except Ang IV, n=6) * P<0.05 compared to control paired t-test) Complementary measurements of Na/K ATPase expression by confocal microscopy-FIG. 5).
(§1) Na/K ATPase expression and activity are measured by basolateral surface biotinylation and oubain-inhibitable ATPase activity, respectively, in cells cultured in Transwell plates.
In complementary experiments, basolateral Na/K ATPase expression in cultured cells is measured both by biotinylation and confocal microscopy. Biotinylation technique to assess the surface Na/K ATPase protein has already been established in our laboratory. Biotinylation is performed as using NHS-S-S-biotin (Pierce). Labeling for 20 min at the basolateral domain in cells grown in transwells at 4° C. to stop endocytosis and internalization of antigen. Biotinylated antigens are immunoprecipitated with streptavidin agarose and released by incubation in 10 mM dithiothreitol, reconstituted in Laemmli buffer, subjected to SDS-PAGE and then probed with Anti alphal Na/K ATPase mAb (Upstate/ Millipore, Billerica, Mass.). For analysis, surface Na/K ATPase is compared to total protein as determined by immunoblotting in solubilized cell extract and with the amount of Na/K ATPase not removed by avidin precipitation method (intracellular pool).
(In general: Immunoblotting shows a protein as a band on a membrane.)

In a further assay the test system is Dahl SR rats. The assay is described as follows: Infusion of Anpep inhibitor, salt-sensitivity by radiotelemetric blood pressure. Format: in vivo, rat. The following applies: preliminary experiments. As to the method:
For these experiments, continuous radiotelemetric blood pressure monitoring is performed in rats instrumented with transducers and osmotic mini-pumps.

The test system of another assay is LLC-PK cells. The assay can be described thus: Quantitative immunohistochemistry for APN and Ang IV after siRNA. The assay is classed as cell-based. The following applies: siRNA 2 μg per well, 48 hours, Q-IHC, P<0.05 vs control. As for the experimental part: The top panel is a scan of photographs showing quantitative immunohistochemistry (QIH-C) for APN and Ang IV. Cells were grown in 4 well chamber plates. For siRNA, each well was incubated (37° C. for 5 hours) with 1 ml media containing 4 μl of Enhancer R, 4 μl of RNAi (2 μg), 8 μl of Transmessenger Reagent and […] of optimem followed by 0.5 ml of optimem+20% FBS for 48 hours. The cells were fixed with 3.7% formaldehyde and stained using DakoCytomation staining kit. The amount of DAB staining was measured using Q-IHC. N=10 fields analyzed/transfection×2 transfections P<0.05 vs control. Upper panel: representative fields. Positive staining-arrows.
APN abundance regulates Ang IV: To initially address the hypothesis that the mechanism for APN-mediated regulation of Na/K ATPase is via Ang IV signaling, the effect of suppression of endogenous APN expression with siRNA on Ang IV abundance was measured in LLC-PK cells (FIG. 3A-3B). siRNA to APN decreased both APN and Ang IV expression, indicating the Ang IV level was regulated by APN.
For quantitative immunohistochemistry, a standard three-stage indirect immunoperoxidase technique is used on formalin fixed kidney sections. Images are acquired using a 4.9 million pixel digital scanning 24-bit RGB camera, saved in TIFF format, and used for subsequent analysis. […]

The subject of a further assay is rat proximal tubules. The following applies: fresh suspensions of control or nystatin-stimulated rat proximal tubules; cited from earlier work.
Assay [3] concerns Dahl SS/Jr rats on 8% NaCl. The assay can be described thus: Radiotelemetric blood pressure monitoring during Ang IV infusion. The following applies: 10 day Ang IV infusion 7 pmol/minute, n=4, P<0.05. The assay is classed as in vivo, rat. As for the experimental part: Radiotelemetric blood pressure monitoring with 10 day Ang IV (7 pmol/minute) infusion (===). Systolic BP (peak) 157-188 mmHg. BP for each rat normalized to day 9, each BP averaged during 12 hour dark cycle (rats maintained 12 hours light/dark cycle). Day 0—surgical implantation of pressure transducer and infusion pump. n =4,- - - less than days 6-9 (initial infusion of Ang IV) and 16-24 (P<0.05).
Continuous arterial blood pressure monitoring is by radiotelemetry in freely moving instrumented rats. An implantable osmotic pump is used for infusion experiments.
First, for tail-cuff measurements, the rats must be restrained which falsely elevates the blood pressure due to adrenergic storm. With radiotelemetry, the rats are unrestrained and blood pressures are measured continuously in freely moving rats in large cages. […] Third, with tail cuff, blood pressures are measured once or at most twice a day, whereas, with radiotelemetry, blood pressures are measured continuously, allowing assessment of diurnal patterns and the time-integral of overall blood pressure burden. […]
Survival Surgery and Radiotelemetry Measurement of Central Aortic Pressure. […] Once the transmitter is activated by a special magnet, measurements of pulsatile central aortic blood pressure is recorded continuously by placing an individual receiver under each rat's cage. […]

For assay [4], the system named is Na/K ATPase in LLCPK1 cells. The assay is described as follows: Na/K ATPase activity (oubain-inhibitable ATPase) in cultured cells. Format: cell-based. The following applies: FIG. 7, n=1 (triplicate). As for the experimental part: FIG. 7 is a graph showing Na/K ATPase activity parallels changes in basolateral Na/K ATPase expression in LLCPK1 cells treated with siRNA to APN and AT4; Ang IV and oubain (control). n=1 (triplicate). siRNA to APN (siRNA-APN); siRNA to AT4 (siRNA-AT4); APN over-expression (APN o/e).
as §1
Measurement of Na/KATPase expression and activity: Na/K ATPase activity in membranes isolated from proximal tubule fractions and membranes from cultured/transfected cell lines is measured as the rate of inorganic phosphate, using coloring reagent (10% ammonium molybdate in 10 N sulfuric acid +ferrous sulfate) released in the presence or absence of oubain.

The subject of the next assay is HK-2 cells. The following applies: cited from earlier work.
The test system of another assay is rat. The following applies: infusion into the renal artery, cited from earlier work.
Assay [5] has as its system primary cultures of rat renal epithelial cells. The following applies: cited from earlier work.

Turning to “5′-AACCTGAGTCAGGACGTAAT-3′; SEQ ID NO: 4 [siRNA to AT4 receptor]”, the “APN induced endocytosis of Na/K ATPase” value in [1] is “partially blocks”; in assay [1] (listed as siRNA to the AT4 receptor) it was “abrogrates”. Besides, the “regulation (reduction) of Na/K ATPase expression by Ang IV” value in [2] (LLCPK1 cells treated with siRNA and Ang IV) is recorded as “partially abolishes; also recorded: abrogated”. In addition, the “expression of basolateral Na/K ATPase” value in assay [2] is listed as “increase”.
`CC(C)C[C@H](NC(=O)C(O)[C@H](N)Cc1ccccc1)C(=O)O` (stereo partly drawn) [bestatin, (2S,3R)-3-amino-2-hydroxy-4-phenylbutanoyl-L-leucine]: the salt-sensitivity result in the assay on Dahl SR rats is recorded as “induced sensitivity”.
For `C[C@@H]1O[C@@H](O[C@H]2C[C@@H](O)[C@]3(CO)[C@H]4[C@H](O)C[C@]5(C)[C@@H](C6=CC(=O)OC6)CC[C@]5(O)[C@@H]4CC[C@]3(O)C2)[C@H](O)[C@H](O)[C@H]1O` [oubain], the “Na/K ATPase distribution (endocytosis, membrane abundance)” value in assay [1] is given as “endocytosis”.
In the case of “5′-UCGGGCACAGAUCAUUAUUd(TT)-3′; SEQ ID NO: 3 [siRNA to APN]”, the “expression of basolateral Na/K ATPase” value in [2] is reported as “increased”. Moreover, in the assay with LLC-PK cells, the APN expression result is given as “reduces; also recorded: decreased” and the “Ang IV expression” value is reported as “reduces; also recorded: decreased”.
Regarding `CC[C@H](C)[C@H](NC(=O)[C@H](Cc1ccc(O)cc1)NC(=O)[C@@H](N)C(C)C)C(=O)N[C@@H](Cc1cnc[nH]1)C(=O)N1CCC[C@H]1C(=O)N[C@@H](Cc1ccccc1)C(=O)O` [Ang IV, V-Y-I-H-P-F (SEQ ID NO: 2)], in [1], the “Na/K ATPase distribution (endocytosis, membrane abundance)” value is “endocytosis and reduced membrane abundance of Na/K ATPase”. The “transcellular Na+ transport (proximal tubule O2 consumption rates)” value in the assay on rat proximal tubules was “decreases”. Moreover, the “blood pressure (BP)” value in [3] is on record as “reduces blood pressure; also recorded: lowers arterial blood pressure”. In addition, the “activity of basolateral Na/K ATPase” value in [4] is “reduce”. The “Na uptake (reflecting decreased flux)” value in the assay on HK-2 cells is reported as “increases Na uptake”. In the assay with rat (rat), the cortical blood flow entry is on record as “increases cortical blood flow”. In addition, in the assay with rat, the Na excretion result is recorded as “increases urinary Na excretion; also recorded: promotes Na excretion” and the blood pressure result is given as “lowers blood pressure”. Further, in assay [2], the “expression of basolateral Na/K ATPase” value is reported as “tend to reduce; also recorded: reduced”. Further, the “transcellular Na transport” value in [5] was “dose-dependent decrease”.
